Measured values: patent US8771724B2, “Percutaneous absorption enhancer and transdermal preparation using the same” (TOA EIYO Ltd., priority 2008, dated 2014)
Structures can show the parent of a compound that is named as a salt. Where two headings read alike, the source gives them in different places.

Experimental: A permeation test was carried out based on the following procedure. First, an excised skin (Yucatan miniature swine or hairless mouse) was placed in a vertical diffusion cell in which temperature was kept at 37° C., and a receptor phase was filled with 7 mL of a phosphate-buffered saline (PBS, a pH of 7.5). The whole was left to stand still for one hour. […] Then, the test was started. […] Note that after each of the collections, an equivalent amount of PBS was supplemented into the receptor phase. Each PBS collected from the receptor phase was measured for a drug concentration by an HPLC method. […] Further, the slant of a permeation curve at the time when the permeation rate reached a steady state was used to calculate a skin permeation rate (μg/hr/cm^2).
An enhancing effect on drug permeation was evaluated for the case where a 1% isopropyl myristate solution was used as a control and for the case where 1% each of n-octyl-β-D-thioglucopyranoside and dioctyl sodium sulfosuccinate was added.

Row | Percutaneous absorption enhancing action (Example/Comparative Example), cumulative permeation amount for 24 hours (hairless, mouse, 24 h, pH 7.5) [times] | Percutaneous absorption enhancing action (Example/Comparative Example), skin permeation rate (hairless, mouse, pH 7.5) | Percutaneous absorption enhancing action (Example/Comparative Example), cumulative permeation amount for 24 hours [times] | Percutaneous absorption enhancing action (Example/Comparative Example), skin permeation rate [times] | SMILES
1 | 15 | 183 times | – | – | CCOc1nc2cccc(C(=O)O)c2n1Cc1ccc(-c2ccccc2-c2nnn[nH]2)cc1 [Candesartan, candesartan]
2 | 42 | 26 times | – | – | CCOC(=O)[C@H](CCc1ccccc1)N[C@@H](C)C(=O)N(CC(=O)O)C1Cc2ccccc2C1 [Delapril hydrochloride, delapril hydrochloride]
3 | 28 | 54 times | – | – | CC(C)n1c(/C=C/C(O)CC(O)CC(=O)O)c(-c2ccc(F)cc2)c2ccccc21 (centres unmarked) [Fluvastatin sodium, fluvastatin sodium]
4 | 12 | 40 times | – | – | CCOC(=O)[C@H](CCc1ccccc1)N[C@@H](C)C(=O)N1C(=O)N(C)C[C@H]1C(=O)O [Imidapril hydrochloride, imidapril hydrochloride]
5 | 250 | 180 times | – | – | CN(Cc1cnc2nc(N)nc(N)c2n1)c1ccc(C(=O)N[C@@H](CCC(=O)O)C(=O)O)cc1 [Methotrexate, methotrexate]
6 | 75 | 94 times | – | – | CCCc1nc(C(C)(C)O)c(C(=O)OCc2oc(=O)oc2C)n1Cc1ccc(-c2ccccc2-c2nnn[nH]2)cc1 [Olmesartan medoxomil, olmesartan medoxomil]
7 | 27 | 33 times | – | – | CCOc1cc(CC(=O)N[C@@H](CC(C)C)c2ccccc2N2CCCCC2)ccc1C(=O)O [Repaglinide, repaglinide]
8 | – | – | 46 | 138 | CC(C)c1nc(N(C)S(C)(=O)=O)nc(-c2ccc(F)cc2)c1/C=C/[C@@H](O)C[C@@H](O)CC(=O)[O-].CC(C)c1nc(N(C)S(C)(=O)=O)nc(-c2ccc(F)cc2)c1/C=C/[C@@H](O)C[C@@H](O)CC(=O)[O-].[Ca+2] [Rosuvastatin calcium, rosuvastatin calcium]
9 | 27 | 46 times | – | – | CCOC(=O)[C@H](CCc1ccccc1)N[C@H]1CS[C@H](c2cccs2)CN(CC(=O)O)C1=O [Temocapril hydrochloride, temocapril hydrochloride]
10 | 29 | 40 times | – | – | Cc1cccc(Nc2ccncc2S(=O)(=O)NC(=O)NC(C)C)c1 [Torasemide, torasemide]
11 | 4 | 12 times | – | – | CCCCC(=O)N(Cc1ccc(-c2ccccc2-c2nnn[nH]2)cc1)[C@H](C(=O)O)C(C)C [Valsartan, valsartan]

Further lines, the molecule ahead of its results:

Row | SMILES | Percutaneous absorption enhancing action (Example/Comparative Example), cumulative permeation amount for 24 hours (hairless, mouse, 24 h, pH 7.5) [times] | Percutaneous absorption enhancing action (Example/Comparative Example), skin permeation rate (hairless, mouse, pH 7.5) | Percutaneous absorption enhancing action (Example/Comparative Example), cumulative permeation amount for 24 hours [times] | Percutaneous absorption enhancing action (Example/Comparative Example), skin permeation rate [times]
12 | COc1cc(N)cn[n+]1-c1ccccc1 [Amezinium metilsulfate, amezinium metilsulfate] | 7 | 24 times | – | –
13 | CC1(C)S[C@@H]2[C@H](NC(=O)[C@H](N)c3ccc(O)cc3)C(=O)N2[C@H]1C(=O)O [Amoxicillin trihydrate, amoxicillin trihydrate] | 234 | 254 times | – | –
14 | N[C@@H](C(=O)N[C@@H]1C(=O)N2C(C(=O)O)=C(Cl)CS[C@H]12)c1ccccc1 [Cefaclor, cefaclor] | 420 | 962 times | – | –
15 | CCOC(=O)[C@H](CCc1ccccc1)N[C@H]1CCCN2CCC[C@@H](C(=O)O)N2C1=O [Cilazapril, cilazapril] | 13 | 16 times | – | –
16 | CCOC(=O)[C@H](CCc1ccccc1)N[C@@H](C)C(=O)N1CCC[C@H]1C(=O)O [Enalapril maleate, enalapril maleate] | 4 | 44 times | – | –
17 | NNc1nncc2ccccc12 [Hydralazine hydrochloride, hydralazine hydrochloride] | 344 | 1,411 times | – | –
18 | N[C@@H](Cc1ccc(O)c(O)c1)C(=O)O [Levodopa, levodopa] | 461 | 289 times | – | –
19 | CCC[C@H](N[C@@H](C)C(=O)N1[C@H](C(=O)O)C[C@@H]2CCCC[C@@H]21)C(=O)OCC [Perindopril erbumine, perindopril erbumine] | 3 | 12 times | – | –
20 | CNC[C@H](O)c1cccc(O)c1 [Phenylephrine hydrochloride, phenylephrine hydrochloride] | 4 | 8 times | – | –
21 | NS(=O)(=O)c1cc(C(=O)O)cc(N2CCCC2)c1Oc1ccccc1 [Piretanide, piretanide] | 34 | 51 times | – | –
22 | CCOC(=O)[C@H](CCc1ccccc1)N[C@@H](C)C(=O)N1[C@H](C(=O)O)C[C@@H]2CCC[C@@H]21 [Ramipril, ramipril] | 5 | 8 times | – | –
23 | C[C@]1(Cn2ccnn2)[C@H](C(=O)O)N2C(=O)C[C@H]2S1(=O)=O [Tazobactam, tazobactam] | 6 | 21 times | – | –
24 | COc1ccccc1N1CCN(CCCNc2cc(=O)n(C)c(=O)n2C)CC1 [Urapidil, urapidil] | 20 | 18 times | – | –
25 | CC(=O)N[C@H]1[C@H]([C@H](O)[C@H](O)CO)OC(C(=O)O)=C[C@@H]1N=C(N)N [Zanamivir hydrate, zanamivir hydrate] | 47 | 92 times | – | –
